Source: article PMC3914206

Tests used:
Assay in all cases: KiNativ chemical proteomics profiling in HeLa and PC3 cell lysates
Format in all cases: binding
[1] = biological target: T1, selected panels of kinases in HeLa and PC3 cell lysates (Homo sapiens, UniProt O75582); details: 10 uM; proteome HEL; peptide DIk[…]; labeling site Lys2
T1 construct: endogenous in cells; host or cells: HeLa and PC3 cell lysates

[2] = biological target: T2, selected panels of kinases in HeLa and PC3 cell lysates (Homo sapiens, UniProt P07332); details: 10 uM; proteome HEL; peptide […]kSCR; labeling site Lys1
T2 construct: endogenous in cells; host or cells: HeLa and PC3 cell lysates

[3] = biological target: T3, selected panels of kinases in HeLa and PC3 cell lysates (Homo sapiens, UniProt P15735); details: 10 uM; PHKg2; peptide ATGHEFAVkIMEVTAER; proteome PC3; labeling site Lys1
T3 construct: endogenous in cells; host or cells: HeLa and PC3 cell lysates

[4] = biological target: T4, selected panels of kinases in HeLa and PC3 cell lysates (Homo sapiens, UniProt P16591); details: 10 uM, peptide TSVAVk[…], labeling site Lys1
T4 construct: endogenous in cells; host or cells: HeLa and PC3 cell lysates
T4 sequence (P16591 whole entry): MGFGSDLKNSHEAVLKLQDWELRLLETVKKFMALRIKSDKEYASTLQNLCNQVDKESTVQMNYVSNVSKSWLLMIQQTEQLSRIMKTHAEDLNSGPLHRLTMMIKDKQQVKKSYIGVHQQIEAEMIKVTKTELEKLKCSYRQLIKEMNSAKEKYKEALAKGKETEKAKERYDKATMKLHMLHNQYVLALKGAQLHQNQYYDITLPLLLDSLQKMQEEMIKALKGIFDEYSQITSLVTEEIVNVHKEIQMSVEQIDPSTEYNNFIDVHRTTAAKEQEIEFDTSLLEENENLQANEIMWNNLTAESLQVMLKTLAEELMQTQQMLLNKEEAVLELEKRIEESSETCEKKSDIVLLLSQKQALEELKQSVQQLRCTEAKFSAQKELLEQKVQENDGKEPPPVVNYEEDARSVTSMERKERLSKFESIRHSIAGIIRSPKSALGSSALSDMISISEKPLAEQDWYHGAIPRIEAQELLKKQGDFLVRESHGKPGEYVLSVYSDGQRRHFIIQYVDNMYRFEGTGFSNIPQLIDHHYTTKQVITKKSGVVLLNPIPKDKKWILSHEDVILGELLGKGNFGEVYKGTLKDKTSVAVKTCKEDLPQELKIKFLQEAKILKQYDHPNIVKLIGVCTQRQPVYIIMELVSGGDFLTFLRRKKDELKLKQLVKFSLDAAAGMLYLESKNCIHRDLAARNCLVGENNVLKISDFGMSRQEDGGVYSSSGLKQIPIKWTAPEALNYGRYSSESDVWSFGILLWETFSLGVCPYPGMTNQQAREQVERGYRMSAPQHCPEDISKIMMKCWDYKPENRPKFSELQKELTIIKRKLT

[5] = biological target: T5, selected panels of kinases in HeLa and PC3 cell lysates (Homo sapiens, UniProt P25098); details: 10 uM; proteome HEL; peptide DLk[…]; labeling site Lys2
T5 construct: endogenous in cells; host or cells: HeLa and PC3 cell lysates

[6] = biological target: T6, selected panels of kinases in HeLa and PC3 cell lysates (Homo sapiens, UniProt P41743); details: 10 uM; PKCi; peptide IYAMkVVK; proteome HEL; labeling site Lys1
T6 construct: endogenous in cells; host or cells: HeLa and PC3 cell lysates

[7] = biological target: T7, selected panels of kinases in HeLa and PC3 cell lysates (Homo sapiens, UniProt P45985); details: 10 uM, proteome PC3
T7 construct: endogenous in cells; host or cells: HeLa and PC3 cell lysates
T7 sequence (P45985 1-399): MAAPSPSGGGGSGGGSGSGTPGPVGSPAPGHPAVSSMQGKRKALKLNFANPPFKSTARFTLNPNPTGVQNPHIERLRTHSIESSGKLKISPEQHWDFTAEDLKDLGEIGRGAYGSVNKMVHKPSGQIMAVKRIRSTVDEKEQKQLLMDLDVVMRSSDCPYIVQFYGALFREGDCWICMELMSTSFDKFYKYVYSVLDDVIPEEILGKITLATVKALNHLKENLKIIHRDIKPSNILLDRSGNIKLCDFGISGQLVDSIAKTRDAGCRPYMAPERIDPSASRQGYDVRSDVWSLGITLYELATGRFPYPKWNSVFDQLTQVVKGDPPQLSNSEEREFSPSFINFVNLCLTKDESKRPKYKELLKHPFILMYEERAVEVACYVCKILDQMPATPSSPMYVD

[8] = biological target: T8, selected panels of kinases in HeLa and PC3 cell lysates (Homo sapiens, UniProt P48729); details: 10 uM; proteome PC3; peptide DIk[…]; labeling site Lys2
T8 construct: endogenous in cells; host or cells: HeLa and PC3 cell lysates

[9] = biological target: T9, selected panels of kinases in HeLa and PC3 cell lysates (Homo sapiens, UniProt P48736); details: 10 uM; PIK3CG; peptide KkPLWLEFK; proteome HEL; labeling site ATP
T9 construct: endogenous in cells; host or cells: HeLa and PC3 cell lysates

[10] = biological target: T10, selected panels of kinases in HeLa and PC3 cell lysates (Homo sapiens, UniProt P49841); details: 10 uM; proteome PC3; peptide DIk[…]; labeling site Lys2
T10 construct: endogenous in cells; host or cells: HeLa and PC3 cell lysates

[11] = biological target: T11, selected panels of kinases in HeLa and PC3 cell lysates (Homo sapiens, UniProt Q00535); details: 10 uM, proteome PC3
T11 construct: endogenous in cells; host or cells: HeLa and PC3 cell lysates
T11 sequence (Q00535 whole entry): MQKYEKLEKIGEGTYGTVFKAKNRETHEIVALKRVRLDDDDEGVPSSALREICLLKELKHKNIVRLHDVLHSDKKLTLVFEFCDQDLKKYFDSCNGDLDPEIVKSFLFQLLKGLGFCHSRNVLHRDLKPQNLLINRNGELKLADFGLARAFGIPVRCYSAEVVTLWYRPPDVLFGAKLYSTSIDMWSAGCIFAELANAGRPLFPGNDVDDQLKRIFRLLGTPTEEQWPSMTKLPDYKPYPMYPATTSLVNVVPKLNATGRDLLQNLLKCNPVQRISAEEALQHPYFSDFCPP

[12] = biological target: T12, selected panels of kinases in HeLa and PC3 cell lysates (Homo sapiens, UniProt Q00537); details: 10 uM; PCTAIRE2; peptide DLkPQNLLINEK; proteome HEL; labeling site Lys2
T12 construct: endogenous in cells; host or cells: HeLa and PC3 cell lysates

[13] = biological target: T13, selected panels of kinases in HeLa and PC3 cell lysates (Homo sapiens, UniProt Q13523); details: 10 uM; PRP4; peptide […]k[…]; proteome PC3; labeling site Lys2
T13 construct: endogenous in cells; host or cells: HeLa and PC3 cell lysates

[14] = biological target: T14, selected panels of kinases in HeLa and PC3 cell lysates (Homo sapiens, UniProt Q14164); details: 10 uM; proteome HEL; peptide SGELVAVk[…]; labeling site Lys1
T14 construct: endogenous in cells; host or cells: HeLa and PC3 cell lysates

[15] = biological target: T15, selected panels of kinases in HeLa and PC3 cell lysates (Homo sapiens, UniProt Q16644); details: 10 uM; proteome HEL; peptide […]k[…]; labeling site ATP Loop
T15 construct: endogenous in cells; host or cells: HeLa and PC3 cell lysates
T15 sequence (Q16644 whole entry): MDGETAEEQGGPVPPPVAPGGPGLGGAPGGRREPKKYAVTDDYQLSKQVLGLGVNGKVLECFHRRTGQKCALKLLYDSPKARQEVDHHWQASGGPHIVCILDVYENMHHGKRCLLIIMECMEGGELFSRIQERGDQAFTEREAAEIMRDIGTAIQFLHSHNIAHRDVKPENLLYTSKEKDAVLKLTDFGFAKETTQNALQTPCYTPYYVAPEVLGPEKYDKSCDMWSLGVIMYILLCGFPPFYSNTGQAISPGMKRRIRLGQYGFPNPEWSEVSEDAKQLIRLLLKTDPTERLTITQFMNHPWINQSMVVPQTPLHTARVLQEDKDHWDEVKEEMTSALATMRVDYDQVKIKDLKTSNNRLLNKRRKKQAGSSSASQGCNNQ

[16] = biological target: T16, selected panels of kinases in HeLa and PC3 cell lysates (Homo sapiens, UniProt Q58A45); details: 10 uM; PAN3; peptide VMDPTkILITGK; proteome HEL
T16 construct: endogenous in cells; host or cells: HeLa and PC3 cell lysates
T16 sequence (Q58A45 whole entry): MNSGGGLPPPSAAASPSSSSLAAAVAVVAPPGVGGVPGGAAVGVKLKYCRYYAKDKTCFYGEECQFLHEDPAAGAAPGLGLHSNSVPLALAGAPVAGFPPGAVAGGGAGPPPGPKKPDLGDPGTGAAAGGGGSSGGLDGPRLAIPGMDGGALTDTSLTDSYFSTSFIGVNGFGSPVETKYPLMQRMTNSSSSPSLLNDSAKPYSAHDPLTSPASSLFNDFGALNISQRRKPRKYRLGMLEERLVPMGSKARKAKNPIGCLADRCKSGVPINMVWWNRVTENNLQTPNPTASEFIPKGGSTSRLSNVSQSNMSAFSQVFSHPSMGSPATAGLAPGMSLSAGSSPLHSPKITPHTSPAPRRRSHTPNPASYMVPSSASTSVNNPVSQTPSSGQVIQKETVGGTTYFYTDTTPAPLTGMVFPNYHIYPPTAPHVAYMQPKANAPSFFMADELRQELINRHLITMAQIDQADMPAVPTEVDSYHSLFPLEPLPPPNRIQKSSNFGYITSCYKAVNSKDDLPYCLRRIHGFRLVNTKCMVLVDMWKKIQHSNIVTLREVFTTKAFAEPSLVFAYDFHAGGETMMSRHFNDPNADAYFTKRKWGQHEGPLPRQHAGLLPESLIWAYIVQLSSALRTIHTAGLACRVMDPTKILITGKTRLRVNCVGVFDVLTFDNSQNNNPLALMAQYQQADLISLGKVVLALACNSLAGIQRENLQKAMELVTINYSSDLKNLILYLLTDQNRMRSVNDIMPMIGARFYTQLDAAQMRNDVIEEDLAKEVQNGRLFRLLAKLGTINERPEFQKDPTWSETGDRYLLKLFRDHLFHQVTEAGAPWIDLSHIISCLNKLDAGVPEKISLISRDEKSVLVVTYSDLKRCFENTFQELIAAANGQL

[17] = biological target: T17, selected panels of kinases in HeLa and PC3 cell lysates (Homo sapiens, UniProt Q7KZI7); details: 10 uM; proteome PC3; peptide EVAVk[…]; labeling site Lys1
T17 construct: endogenous in cells; host or cells: HeLa and PC3 cell lysates

[18] = biological target: T18, selected panels of kinases in HeLa and PC3 cell lysates (Homo sapiens, UniProt Q8NEB9); details: 10 uM; PIK3C3; peptide […]kHGDDLR; proteome HEL; labeling site ATP
T18 construct: endogenous in cells; host or cells: HeLa and PC3 cell lysates

[19] = biological target: T19, selected panels of kinases in HeLa and PC3 cell lysates (Homo sapiens, UniProt Q96PY6); details: 10 uM; proteome HEL; peptide DIkSQNIFLTK; labeling site Lys2
T19 construct: endogenous in cells; host or cells: HeLa and PC3 cell lysates

[20] = biological target: T20, selected panels of kinases in HeLa and PC3 cell lysates (Homo sapiens, UniProt Q9Y4K4); details: 10 uM; proteome PC3; peptide […]kIIK; labeling site Lys1
T20 construct: endogenous in cells; host or cells: HeLa and PC3 cell lysates

[21] = biological target: T21, selected panels of kinases in HeLa and PC3 cell lysates (Homo sapiens, UniProt Q9Y572); details: 10 uM; RIPK3; peptide DLk[…]; proteome HEL; labeling site Lys2
T21 construct: endogenous in cells; host or cells: HeLa and PC3 cell lysates

[22] = biological target: T22, selected panels of kinases in HeLa and PC3 cell lysates (Homo sapiens, UniProt Q9Y6R4); details: 10 uM, peptide DIk[…], labeling site Lys2
T22 construct: endogenous in cells; host or cells: HeLa and PC3 cell lysates
T22 sequence (Q9Y6R4 whole entry): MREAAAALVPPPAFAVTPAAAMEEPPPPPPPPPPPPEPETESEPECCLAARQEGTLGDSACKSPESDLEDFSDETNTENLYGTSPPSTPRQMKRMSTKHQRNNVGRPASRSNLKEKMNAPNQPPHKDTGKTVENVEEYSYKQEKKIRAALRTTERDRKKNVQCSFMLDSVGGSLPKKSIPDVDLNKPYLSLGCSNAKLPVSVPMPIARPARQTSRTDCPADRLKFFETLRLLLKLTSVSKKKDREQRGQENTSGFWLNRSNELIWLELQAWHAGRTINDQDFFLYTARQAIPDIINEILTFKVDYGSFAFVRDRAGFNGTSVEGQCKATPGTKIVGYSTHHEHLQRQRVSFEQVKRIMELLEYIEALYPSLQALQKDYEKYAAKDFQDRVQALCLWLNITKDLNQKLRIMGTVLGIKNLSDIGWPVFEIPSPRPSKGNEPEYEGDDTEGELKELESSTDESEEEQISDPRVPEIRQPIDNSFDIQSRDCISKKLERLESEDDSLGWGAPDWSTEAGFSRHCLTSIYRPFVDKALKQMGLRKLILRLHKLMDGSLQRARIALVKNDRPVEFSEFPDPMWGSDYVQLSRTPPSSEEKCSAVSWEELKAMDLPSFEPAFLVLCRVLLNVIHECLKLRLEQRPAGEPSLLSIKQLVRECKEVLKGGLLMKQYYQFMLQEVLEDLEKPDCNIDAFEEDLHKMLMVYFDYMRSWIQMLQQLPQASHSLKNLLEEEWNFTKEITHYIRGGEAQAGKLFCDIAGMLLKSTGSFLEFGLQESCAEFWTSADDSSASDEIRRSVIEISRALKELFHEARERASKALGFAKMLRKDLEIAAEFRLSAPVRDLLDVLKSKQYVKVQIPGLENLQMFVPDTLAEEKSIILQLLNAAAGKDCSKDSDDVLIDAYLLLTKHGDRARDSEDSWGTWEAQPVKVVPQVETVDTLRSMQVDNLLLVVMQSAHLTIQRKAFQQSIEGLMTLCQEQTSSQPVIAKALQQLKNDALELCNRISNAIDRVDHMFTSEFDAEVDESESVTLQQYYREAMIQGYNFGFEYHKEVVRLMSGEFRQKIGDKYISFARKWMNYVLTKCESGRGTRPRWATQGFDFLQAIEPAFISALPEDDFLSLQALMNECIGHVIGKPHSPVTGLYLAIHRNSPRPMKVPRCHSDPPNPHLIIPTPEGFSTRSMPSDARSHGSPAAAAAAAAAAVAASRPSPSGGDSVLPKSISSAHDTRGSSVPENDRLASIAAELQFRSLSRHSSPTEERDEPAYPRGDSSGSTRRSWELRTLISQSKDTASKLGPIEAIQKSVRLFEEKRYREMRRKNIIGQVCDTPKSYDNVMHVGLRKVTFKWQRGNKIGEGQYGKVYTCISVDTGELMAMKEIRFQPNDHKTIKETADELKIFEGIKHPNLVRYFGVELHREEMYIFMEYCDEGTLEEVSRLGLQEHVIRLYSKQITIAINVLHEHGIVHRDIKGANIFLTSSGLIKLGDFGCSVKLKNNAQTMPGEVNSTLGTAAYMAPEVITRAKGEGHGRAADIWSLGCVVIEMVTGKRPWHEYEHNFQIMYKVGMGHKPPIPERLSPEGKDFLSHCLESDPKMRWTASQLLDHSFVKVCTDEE

[23] = peptide DIkPSNILLDR, labeling site Lys2
[24] = peptide […]kR, labeling site Lys1
[25] = peptide DLkPQNLLINR, labeling site Lys2
[26] = peptide ETHEIVALkR, labeling site Lys1

T1 sequence (O75582 whole entry): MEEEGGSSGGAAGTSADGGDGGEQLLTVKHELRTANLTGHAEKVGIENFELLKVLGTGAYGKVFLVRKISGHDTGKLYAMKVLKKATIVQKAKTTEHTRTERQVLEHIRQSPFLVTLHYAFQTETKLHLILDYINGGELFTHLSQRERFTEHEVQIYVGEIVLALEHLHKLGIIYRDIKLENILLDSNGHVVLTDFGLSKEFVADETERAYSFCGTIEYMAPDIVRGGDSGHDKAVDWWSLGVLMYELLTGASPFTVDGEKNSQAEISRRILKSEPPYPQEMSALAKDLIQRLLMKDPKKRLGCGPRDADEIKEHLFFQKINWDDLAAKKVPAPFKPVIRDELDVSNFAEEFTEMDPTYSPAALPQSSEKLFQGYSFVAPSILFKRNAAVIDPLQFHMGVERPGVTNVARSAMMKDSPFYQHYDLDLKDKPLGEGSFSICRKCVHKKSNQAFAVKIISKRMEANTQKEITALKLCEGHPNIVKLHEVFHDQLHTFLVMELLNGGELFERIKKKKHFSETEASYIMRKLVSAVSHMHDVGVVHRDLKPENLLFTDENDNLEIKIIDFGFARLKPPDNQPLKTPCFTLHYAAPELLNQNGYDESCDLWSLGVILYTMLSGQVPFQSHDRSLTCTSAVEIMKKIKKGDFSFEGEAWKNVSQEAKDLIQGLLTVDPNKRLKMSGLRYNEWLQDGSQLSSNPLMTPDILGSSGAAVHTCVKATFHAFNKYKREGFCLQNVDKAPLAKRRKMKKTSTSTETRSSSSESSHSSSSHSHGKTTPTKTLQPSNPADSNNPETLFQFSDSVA

| Compound | % Inhibiton, MSK1 domain1 [1] [%] | % Inhibiton, FES [2] [%] | % Inhibition PHKg2 [3] [%] | % Inhibiton, FER ([4]; proteome HEL) [%] | % Inhibiton, FER ([4]; proteome PC3) [%] | % Inhibiton, BARK1 [5] [%] | % Inhibition PKCi [6] [%] | % Inhibiton, MAP2K4 [7, 23] [%] | % Inhibiton, MAP2K4 [7, 24] [%] | % Inhibiton, CK1a [8] [%] | % Inhibition PIK3CG [9] [%] | % Inhibiton, GSK3B [10] [%] | % Inhibiton, CDK5 [11, 25] [%] | % Inhibiton, CDK5 [11, 26] [%] | % Inhibiton, CDK5 [11, 24] [%] | % Inhibition PCTAIRE2 [12] [%] | % Inhibition PRP4 [13] [%] | % Inhibiton, IKKe [14] [%] | % Inhibiton, MAPKAPK3 [15] [%] | % Inhibition PAN3 [16] [%] | also measured |
| --- | --- | --- | --- | --- | --- | --- | --- | --- | --- | --- | --- | --- | --- | --- | --- | --- | --- | --- | --- | --- | --- |
| CCOc1cc(C(=O)N2CCC(N3CCN(C)CC3)CC2)ccc1Nc1ncc2c(n1)N(C1CCCC1)c1ccccc1C(=O)N2C [Compound 26] | ~70.5 | 4.1 | -3.8 | 24.7 | 12 | 10.9 | -2.8 | -14.4 | -7.3 | -0.3 | 45.3 | -3 | -4.7 | -6.5 | 11.7 | 1.4 | 5.5 | 8.6 | 20.8 | -17.8 | % Inhibiton, MARK2 [17]: 16.8%; % Inhibition PIK3C3 [18]: 8.1%; % Inhibiton, NEK1 [19]: 3%; % Inhibiton, KHS1 [20]: -7.1%; % Inhibition RIPK3 [21]: -2.4%; % Inhibiton, MAP3K4 ([22]; proteome HEL): -12%; % Inhibiton, MAP3K4 ([22]; proteome PC3): -1.2% |
| COc1cc(C(=O)N2CCC(N3CCN(C)CC3)CC2)ccc1Nc1ncc2c(n1)N(C1CCCC1)c1ccccc1C(=O)N2C [Compound 25, 11-cyclopentyl-2-((2-methoxy-4-(4-(4-methylpiperazin-1-yl)piperidine-1-carbonyl)phenyl)amino)-5-methyl-5H-benzo[e]pyrimido[5,4-b][1,4]diazepin-6(11H)-one] | 26.7 | 6.0 | 8.1 | 21.3 | 28.9 | 12.0 | 13.3 | -7.6 | -9.0 | 9.4 | 11.8 | 4.6 | -8.6 | 9.7 | -1.2 | 4.8 | -11.9 | -20.7 | 1.8 | -1.7 | % Inhibiton, MARK2 [17]: 1.3%; % Inhibition PIK3C3 [18]: 4.0%; % Inhibiton, NEK1 [19]: 14.7%; % Inhibiton, KHS1 [20]: -6.6%; % Inhibition RIPK3 [21]: -1.3%; % Inhibiton, MAP3K4 ([22]; proteome HEL): 7.2%; % Inhibiton, MAP3K4 ([22]; proteome PC3): 2.6% |
